The values that follow come from ChEMBL document CHEMBL1127384, “Design, synthesis, and conformational analysis of a novel macrocyclic HIV-protease inhibitor” (J Med Chem, 1994).

The target in this assay is Human immunodeficiency virus type 1 protease (Human immunodeficiency virus 1, UniProt Q72874). As to the kind of experiment: In vitro ability to inhibit HIV-protease.

pKi: −log10 of the molar value.

`CC(C)[C@H](NC(=O)OCc1ccccc1)C(=O)N[C@@H](Cc1ccc(OCc2ccccc2)cc1)C(=O)C(F)(F)C(=O)NCc1ccccc1` had a pKi of 8.30.
To `CC(C)[C@@H]1NC(=O)CNC(=O)COc2ccc(cc2)C[C@@H](C(=O)C(F)(F)C(=O)NCc2ccccc2)NC1=O` belongs 7.70.
